Results from patent US12419951B2, “Preparation of zinc risedronate micro/nano adjuvant and use thereof as vaccine adjuvant” (priority 2019, dated 2025).

Tested on: hepatitis B therapeutic protein
Conditions: same risedronate content as Zn-risedronic acid (1/0.125) group
Description: Using the experimental procedure described in Example 4, mice were immunized with zinc risedronate adjuvant in combination with hepatitis B therapeutic protein by intramuscular injection, and serum antibody titers were detected. The specific method was as follows:
Experimental animals: Balb/C mice, 6-8 weeks, 5 mice/group, female.
Immunization protocol: antigen 1.2 μg/mouse, adjuvant and hepatitis B therapeutic protein were mixed at a volume ratio of 1:1 to form a vaccine, and then injected intramuscularly to mice, 150 μL per mouse, and 75 μL on each hind leg. The immunization was performed on the 0th, 2nd, 3rd, 4th, 5th and 6th week, 1.2 μg of antigen per mouse, blood samples were collected from eye socket after the 6th week, and ELISA was used to determine the levels of specific antibodies in serum.

Compound: O=P(O)(O)C(O)(Cc1cccnc1)P(=O)(O)O [sodium risedronate, Risedronate sodium]
- difference in humoral immune response compared with aluminum adjuvant: no statistically significant difference
- humoral immune stimulation effect: a certain humoral immune stimulation effect
